Literature values, collected in publication PMC5085262 (Chemical Science, 2016).

Conditions: no reference given

Oc1cccc2cccnc12 [Quin, 8-hydroxyquinoline]
pKa of the free ligand (phenolate group): ≈ 9.9
